Here are results for five compounds from paper PMC9603561, “Anticoagulants as Potential SARS-CoV-2 M^pro Inhibitors for COVID-19 Patients: In Vitro, Molecular Docking, Molecular Dynamics, DFT, and SAR Studies” (International Journal of Molecular Sciences, 2022).

Read-outs that look alike come from different tables or passages of the source.

The target in one series is T1, SARS-CoV-2 M^pro enzyme (Severe acute respiratory syndrome coronavirus 2, UniProt P0DTD1).
T1 construct: The 3CL Protease Assay Kit was used; purchased
Description: SARS-CoV-2 M^pro inhibitory assay (3CL Protease Assay Kit). It is filed as biochemical.

Series [1] relates to SARS-CoV-2 (hCoV-19/Egypt/NRC-03/2020). Description: Crystal violet assay, SARS-CoV-2 inhibitory assay (cell-based). The settings on record: Vero E6 cells, crystal violet CPE readout, read-out: Inhibitory Concentration (IC50) against SARS-CoV-2.
The nature of another series: MTT cytotoxicity assay. The settings on record: African green monkey. It is filed as cell-based. How it is done: (§1) Half of the maximal cytotoxic concentrations (CC50) were assessed to obtain the exact concentration of a compound that caused a rupture to 50% of cells after being treated with variant doses from the compounds to calculate the safety index (SI) = CC50/IC50 for each compound. The assay was performed through stock solution preparation of the target compounds in DMSO/ddH2O (for those in powder form). However, those in solution form were used directly. The prepared solutions were further diluted with DMEM by attaining the working solutions. […] Shortly, 96 well-plates were utilized for cell seeding and incubated at 37 °C in 5% CO2 for 24 h afterward. After one day, the incubated cells were subjected to different concentrations in triplicates of the investigated compounds. After another 24 h, the supernatant was dismissed, and sterile 1x phosphate buffer saline (PBS) was used for cell monolayer washing in triplicates. Thus, 20 µL of 5 mg/mL stock solution was added to each well and then incubated at 37 °C, followed by a medium aspiration for 4 h. So, the formed formazan crystals were dissolved by 200 µL isopropyl alcohol or DMSO. The formazan solution absorbance was measured at 540 nm (λmax) using a multi-well plate reader, while the reference wavelength was 620 nm. The CC50 of each target compound was measured employing nonlinear regression analysis of GraphPad Prism software.
For orientation: Tetrazolium assays rely on reduction of a dye to a coloured formazan, in cell work by metabolically active cells.

For a further series, the system named is Vero E6 cells. Nature of the series: MTT cytotoxicity assay. It is filed as cell-based. The settings on record: Vero E6 cells, MTT, 24 h treatment; read-out: Cytotoxicity Concentration (CC50). How it is done:
as §1

The mark [2] stands for this setting: fluorogenic substrate, triplicate.
Where [3] appears, read: Severe acute respiratory syndrome coronavirus 2, Vero C1008, 72 h.

At SARS-CoV-2 M^pro enzyme (setting [2]), `CCC[C@@]1(CCc2ccccc2)CC(O)=C([C@H](CC)c2cccc(NS(=O)(=O)c3ccc(C(F)(F)F)cn3)c2)C(=O)O1` [tipranavir] gave an IC50 of 7.38 µM.

As for `CCCSc1nc(N[C@@H]2C[C@H]2c2ccc(F)c(F)c2)c2nnn([C@@H]3C[C@H](OCCO)[C@@H](O)[C@H]3O)c2n1` [Ticagrelor, ticagrelor], the IC50 in series [1] (setting [3]) came to 5.6 µM; on SARS-CoV-2 M^pro enzyme (setting [2]) it was 47.5 µM. In addition, the CC50 at 24 h in “MTT cytotoxicity assay” was 142 µM.

As for heparin, the IC50 in series [1] (72 h) was 106 µM; on SARS-CoV-2 M^pro enzyme (read-out: SARS-CoV-2 M^pro IC50, fluorogenic substrate, triplicate), 153 µM. In addition, the CC50 in the series with Vero E6 cells stood at 262 µM.

Regarding `CO[C@H]1O[C@H](COS(=O)(=O)O)[C@@H](O[C@@H]2O[C@@H](C(=O)O)[C@@H](O[C@H]3O[C@H](COS(=O)(=O)O)[C@@H](O[C@@H]4O[C@H](C(=O)O)[C@@H](O[C@H]5O[C@H](COS(=O)(=O)O)[C@@H](O)[C@H](O)[C@H]5NS(=O)(=O)O)[C@H](O)[C@H]4O)[C@H](OS(=O)(=O)O)[C@H]3NS(=O)(=O)O)[C@H](O)[C@H]2OS(=O)(=O)O)[C@H](O)[C@H]1NS(=O)(=O)O` [Fondaparinux sodium, fondaparinux sodium], the IC50 in series [1] (setting [3]) was 8.69 µM; in series [1] (72 h), 8.6 µM; at SARS-CoV-2 M^pro enzyme (setting [2]), 2.36 µM. The compound also registered a CC50 at 24 h in the series “MTT cytotoxicity assay” of 152 µM.

On to `[H]/N=C(/N)c1ccc(NCc2nc3cc(C(=O)N(CCC(=O)O)c4ccccn4)ccc3n2C)cc1` [Dabigatran, dabigatran], for which the IC50 came out at 9.45 µM in series [1] (setting [3]), 9.4 µM in series [1] (72 h) and 10.6 µM against SARS-CoV-2 M^pro enzyme (setting [2]). Also, in the series “MTT cytotoxicity assay” (Vero E6 cells, MTT, 24 h treatment, read-out: Cytotoxicity Concentration (CC50)), the CC50 at 24 h is 142 µM.
